# Experimental data: US10736883B2, “Triazole furan compounds as agonists of the APJ receptor” (AMGEN INC., priority 2016, dated 2020)
# Molecular target: APJ receptor (Homo sapiens (Human), UniProt P35414)
# Test: [35S]GTPγS binding assay on membranes from CHO cells stably expressing human APJ receptor
# Format: biochemical
# Conditions: membranes of CHO cells stably expressing human APJ receptor, means of several independent experiments, read-out: Activity hAPJ SPA EC50 IP
# Summary of the method: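 Membranes from CHO cells stably expressing human APJ were incubated with 0.2 nM [35S]GTPγS and ligands for 90 min at RT in 20 mM HEPES pH 7.5, 5 mM MgCl2, 200 mM NaCl, 3 μM GDP, 0.1% BSA with WGA PS beads. Nonspecific binding was set with 100 μM GTPγS. EC50 came from non-linear regression.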
# Sequence of APJ receptor (P35414 whole entry): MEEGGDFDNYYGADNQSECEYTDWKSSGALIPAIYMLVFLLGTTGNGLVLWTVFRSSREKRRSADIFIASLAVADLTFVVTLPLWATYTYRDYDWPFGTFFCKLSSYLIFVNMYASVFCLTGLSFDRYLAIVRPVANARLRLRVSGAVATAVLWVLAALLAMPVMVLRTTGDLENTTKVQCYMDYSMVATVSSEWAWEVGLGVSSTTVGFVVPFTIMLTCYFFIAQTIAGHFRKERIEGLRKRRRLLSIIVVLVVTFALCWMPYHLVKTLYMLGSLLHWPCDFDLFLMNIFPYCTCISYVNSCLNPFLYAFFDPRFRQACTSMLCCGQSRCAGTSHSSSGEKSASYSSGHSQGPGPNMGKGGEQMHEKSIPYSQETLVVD
row,Structure (SMILES),EC50
1,"COc1ncnc(OC)c1-n1c(NS(=O)(=O)[C@@H](C)[C@H](OC)c2ncc(C)cn2)nnc1-c1ccc(C)o1 [Example 3.0, (1R,2S)—N-(4-(4,6-dimethoxypyrimidin-5-yl)-5-(5-methylfuran-2-yl)-4H-1,2,4-triazol-3-yl)-1-methoxy-1-(5-methylpyrimidin-2-yl)propane-2-sulfonamide]",0.31 nM
2,"COc1cccc(OC)c1-n1c(NS(=O)(=O)[C@@H](C)[C@H](O)c2ccc(Cl)cc2S(C)(=O)=O)nnc1-c1ccc(C)o1 (single isomer, unassigned) [Example 157.0, (1R,2S)-1-(4-Chloro-2-(methylsulfonyl)phenyl)-N-(4-(2,6-dimethoxyphenyl)-5-(5-methyl-2-furanyl)-4H-1,2,4-triazol-3-yl)-1-hydroxy-2-propanesulfonamide or (1S,2R)-1-(4-chloro-2-(methylsulfonyl)phenyl)-N-(4-(2,6-dimethoxyphenyl)-5-(5-methyl-2-furanyl)-4H-1,2,4-triazol-3-yl)-1-hydroxy-2-propanesulfonamide]",0.39 nM
3,"COc1cccc(OC)c1-n1c(NS(=O)(=O)c2cccc([C@H](C)O)c2)nnc1-c1ccc(C)o1 (single isomer, unassigned) [Example 410.0, (R)-N-(4-(2,6-dimethoxyphenyl)-5-(5-methylfuran-2-yl)-4H-1,2,4-triazol-3-yl)-3-(1-hydroxyethyl)benzenesulfonamide or (S)-N-(4-(2,6-dimethoxyphenyl)-5-(5-methylfuran-2-yl)-4H-1,2,4-triazol-3-yl)-3-(1-hydroxyethyl)benzenesulfonamide]",11 nM
4,"COc1cccc(OC)c1-n1c(NS(=O)(=O)[C@@H](C)[C@@H](O)c2ccc(F)cn2)nnc1-c1ccc(C)o1 (single isomer, unassigned) [Example 59.0]",0.16 nM
5,"COc1ncnc(OC)c1-n1c(NS(=O)(=O)[C@@H](C)[C@H](C)c2ncc(F)cn2)nnc1-c1ccc(C)o1 [Example 393.0, (2S,3R)-N-(4-(4,6-dimethoxy-5-pyrimidinyl)-5-(5-methyl-2-furanyl)-4H-1,2,4-triazol-3-yl)-3-(5-fluoro-2-pyrimidinyl)-2-butanesulfonamide]",0.28 nM
6,"COc1cnc([C@@H](O)[C@H](C)S(=O)(=O)Nc2nnc(-c3ccc(C)o3)n2-c2c(OC)cccc2OC)cn1 (single isomer, unassigned) [Example 146.0, (1R, 2S)—N-(4-(2,6-Dimethoxyphenyl)-5-(5-methyl-2-furanyl)-4H-1,2,4-triazol-3-yl)-1-hydroxy-1-(5-methoxy-2-pyrazinyl)-2-propanesulfonamide or (1S, 2R)—N-(4-(2,6-dimethoxyphenyl)-5-(5-methyl-2-furanyl)-4H-1,2,4-triazol-3-yl)-1-hydroxy-1-(5-methoxy-2-pyrazinyl)-2-propanesulfonamide]",0.13 nM
7,"COc1cccc(OC)c1-n1c(NS(=O)(=O)[C@H](C)[C@H](O)c2cn3ccccc3n2)nnc1-c1ccc(C)o1 (racemic) [Example 285.0, (1R,2R)—N-(4-(2,6-Dimethoxyphenyl)-5-(5-methyl-2-furanyl)-4H-1,2,4-triazol-3-yl)-1-hydroxy-1-imidazo[1,2-a]pyridin-2-yl-2-propanesulfonamide and (1S,2S)—N-(4-(2,6-dimethoxyphenyl)-5-(5-methyl-2-furanyl)-4H-1,2,4-triazol-3-yl)-1-hydroxy-1-imidazo[1,2-a]pyridin-2-yl-2-propanesulfonamide]",2.5 nM
8,"COc1cccc(OC)c1-n1c(NS(=O)(=O)[C@H](C)[C@@H](O)c2ncn3ccccc23)nnc1-c1ccc(C)o1 (single isomer, unassigned) [Example 270.0, (1R,2S)—N-(4-(2,6-Dimethoxyphenyl)-5-(5-methyl-2-furanyl)-4H-1,2,4-triazol-3-yl)-1-hydroxy-1-imidazo[1,5-a]pyridin-1-yl-2-propanesulfonamide or (1S,2R)—N-(4-(2,6-dimethoxyphenyl)-5-(5-methyl-2-furanyl)-4H-1,2,4-triazol-3-yl)-1-hydroxy-1-imidazo[1,5-a]pyridin-1-yl-2-propanesulfonamide]",0.56 nM
9,"CCc1ccc(-c2nnc(NS(=O)(=O)[C@@H](C)Cc3ncc(F)cn3)n2-c2c(OC)cccc2OC)o1 (single isomer, unassigned) [Example 97.0, (2S)—N-(4-(2,6-Dimethoxyphenyl)-5-(5-ethyl-2-furanyl)-4H-1,2,4-triazol-3-yl)-1-(5-fluoro-2-pyrimidinyl)-2-propanesulfonamide or (2R)—N-(4-(2,6-dimethoxyphenyl)-5-(5-ethyl-2-furanyl)-4H-1,2,4-triazol-3-yl)-1-(5-fluoro-2-pyrimidinyl)-2-propanesulfonamide]",0.4 nM
10,"COc1c(Br)cc(Br)c(OC)c1-n1c(NS(=O)(=O)[C@@H](C)[C@H](C)c2ncc(F)cn2)nnc1-c1ccc(C)o1 [Example 189.0, (2S,3R)—N-(4-(3,5-Dibromo-2,6-dimethoxyphenyl)-5-(5-methyl-2-furanyl)-4H-1,2,4-triazol-3-yl)-3-(5-fluoro-2-pyrimidinyl)-2-butanesulfonamide]",110 nM
11,"COc1cccc(OC)c1-n1c(NS(=O)(=O)[C@@H](C)[C@H](C)c2cnc(C)cn2)nnc1-c1ccc(C)o1 [Example 148.0, (2S,3R)—N-(4-(2,6-Dimethoxyphenyl)-5-(5-methyl-2-furanyl)-4H-1,2,4-triazol-3-yl)-3-(5-methyl-2-pyrazinyl)-2-butanesulfonamide]",0.19 nM
12,"COc1cccc(OC)c1-n1c(NS(=O)(=O)[C@H](C)Cc2ncc(Cl)cc2NC(C)=O)nnc1-c1ccco1 (single isomer, unassigned) [Example 9.0, N-(5-chloro-2-((2R)-2-((4-(2,6-dimethoxyphenyl)-5-(2-furanyl)-4H-1,2,4-triazol-3-yl)sulfamoyl)propyl)-3-pyridinyl)acetamide or N-(5-chloro-2-((2S)-2-((4-(2,6-dimethoxyphenyl)-5-(2-furanyl)-4H-1,2,4-triazol-3-yl)sulfamoyl)propyl)-3-pyridinyl)acetamide]",0.091 nM
13,"COc1ncnc(OC)c1-n1c(NS(=O)(=O)[C@@H](C)[C@H](OC)c2ncc(Cl)cn2)nnc1-c1ccc(C)o1 [Example 384.0, (1R,2S)-1-(5-chloro-2-pyrimidinyl)-N-(4-(4,6-dimethoxy-5-pyrimidinyl)-5-(5-methyl-2-furanyl)-4H-1,2,4-triazol-3-yl)-1-methoxy-2-propanesulfonamide]",0.15 nM
14,"COCC[C@@H]([C@H](C)c1ncc(F)cn1)S(=O)(=O)Nc1nnc(-c2ccc(C)o2)n1-c1c(OC)cccc1OC (single isomer, unassigned) [Example 67.0]",0.36 nM
15,"COc1cccc(OC)c1-n1c(NS(=O)(=O)[C@H](C)[C@H](O)c2ccccn2)nnc1-c1ccc(C)o1 (stereo in doubt) [Example 90.0, (1R,2R)-N-(4-(2,6-dimethoxyphenyl)-5-(5-methylfuran-2-yl)-4H-1,2,4-triazol-3-yl)-1-hydroxy-1-(pyridin-2-yl)propane-2-sulfonamide compound and (1S,2S)-N-(4-(2,6-dimethoxyphenyl)-5-(5-methylfuran-2-yl)-4H-1,2,4-triazol-3-yl)-1-hydroxy-1-(pyridin-2-yl)propane-2-sulfonamide]",3.9 nM
16,"COCCn1c(NS(=O)(=O)[C@@H](C)[C@H](OC)c2ncc(Cl)cn2)nnc1-c1ccc(C)o1 [Example 386.0, (1R,2S)-1-(5-chloropyrimidin-2-yl)-1-methoxy-N-(4-(2-methoxyethyl)-5-(5-methylfuran-2-yl)-4H-1,2,4-triazol-3-yl)propane-2-sulfonamide]",37 nM
17,"COc1cccc(OC)c1-n1c(NS(=O)(=O)[C@H](C)[C@@H](O)c2coc(C)n2)nnc1-c1ccc(C)o1 (racemic) [Example 284.0, (1R,2S)—N-(4-(2,6-Dimethoxyphenyl)-5-(5-methyl-2-furanyl)-4H-1,2,4-triazol-3-yl)-1-hydroxy-1-(2-methyl-1,3-oxazol-4-yl)-2-propanesulfonamide and (1S,2R)—N-(4-(2,6-dimethoxyphenyl)-5-(5-methyl-2-furanyl)-4H-1,2,4-triazol-3-yl)-1-hydroxy-1-(2-methyl-1,3-oxazol-4-yl)-2-propanesulfonamide]",1.6 nM
18,"COc1cccc(OC)c1-n1c(NS(=O)(=O)[C@@H](C)[C@@H](O)c2coc(C)n2)nnc1-c1ccc(C)o1 (single isomer, unassigned) [Example 55.0, (1S,2S)—N-(4-(2,6-dimethoxyphenyl)-5-(5-methyl-2-furanyl)-4H-1,2,4-triazol-3-yl)-1-hydroxy-1-(2-methyl-1,3-oxazol-4-yl)-2-propanesulfonamide or (1R,2R)—N-(4-(2,6-dimethoxyphenyl)-5-(5-methyl-2-furanyl)-4H-1,2,4-triazol-3-yl)-1-hydroxy-1-(2-methyl-1,3-oxazol-4-yl)-2-propanesulfonamide]",28 nM
19,"COc1cccc(OC)c1-n1c(NS(=O)(=O)[C@@H](C)[C@@H](O)c2ccc(F)cn2)nnc1-c1ccc(C)o1 (single isomer, unassigned) [Example 57.0]",0.11 nM
20,"CCN(CC)C(=O)c1cc(Cl)cnc1C[C@@H](C)S(=O)(=O)Nc1nnc(-c2ccco2)n1-c1c(OC)cccc1OC (single isomer, unassigned) [Example 21.0, 5-chloro-2-((2R)-2-((4-(2,6-dimethoxyphenyl)-5-(2-furanyl)-4H-1,2,4-triazol-3-yl)sulfamoyl)propyl)-N,N-diethyl-3-pyridinecarboxamide or 5-chloro-2-((2S)-2-((4-(2,6-dimethoxyphenyl)-5-(2-furanyl)-4H-1,2,4-triazol-3-yl)sulfamoyl)propyl)-N,N-diethyl-3-pyridinecarboxamide]",0.31 nM
21,"Cc1ccc(-c2nnc(NS(=O)(=O)[C@@H](C)[C@H](C)c3ncc(F)cn3)n2C2CCOCC2)o1 [Example 182.0, (2S,3R)-3-(5-Fluoro-2-pyrimidinyl)-N-(5-(5-methyl-2-furanyl)-4-(tetrahydro-2H-pyran-4-yl)-4H-1,2,4-triazol-3-yl)-2-butanesulfonamide]",26 nM
